This note sets out measurements from patent US4927842A, “2,3,4,9-tetrahydro-1H-carbazole acetic acid derivatives, composition and use as anti-inflammatories” (American Home Products Corporation, priority 1989, dated 1990).

As a reminder, the % Inhibition is the drop in the measured response relative to a control, in per cent.

This assay has as its system rats. In words: Preventative Adjuvant Edema (acute anti-inflammatory effect in rats). The class given is in vivo, Male Sprague Dawley rats. To be noted: 25 mg/kg, p.o.; given immediately before, 24 and 48 hours after Freund's complete adjuvant; hind paw edema volume day 0 to day 3. As to the method:
This test is a primary screen for anti-inflammatory drugs.
Male Sprague Dawley rats (180-200 g) are used. The animals have free access to water but food is withdrawn 18 hours before testing.
Freund's complete adjuvant is prepared by suspending 5 mg killed and dried Mycobacterium butyricum (Difco) in 1 mL mineral oil. The test compounds are dissolved in distilled water or suspended in 0.5% Tween 80 in distilled water according to their solubility. For primary screening all drugs are administered by gastric lavage at the arbitrary dosage of 25 mg/kg, p.o. in a volume of 0.5 mL/100 g body weight to groups of 10 animals.
The method is essentially that described by Wax et al, J. Pharmacol. Exp. Ther., 192, 166-171 (1975). Groups of rats are injected intradermally in the left hand paw with 0.1 mL of Freund's complete adjuvant. The test compound or vehicle is administered immediately before the adjuvant, 24 hours and 48 hours after the adjuvant (day 0, 1 and 2). The injected hind paw volume is measured before the injection of adjuvant and 24 hours after the last drug administration (day 3) by means of a plethysmometer (Buxco Electronics Inc.). The difference between the hind paw volume on day 0 and day 3 represents the edema volume. Etodolac (25 mg/kg, p.o.) is included as a positive control.
The mean edema volume (expressed as mL±SEM) is calculated for each group and the percentage protection conferred by the drug is calculated: [formula] where c is the mean edema volume for the untreated controls and t is the mean edema volume for the drug treated group.

For `CC[C@]1(CC(=O)O)CC[C@@H](CC=NOC)c2c1[nH]c1c(C)cccc21` (relative stereo) [Example 2, cis-1-Ethyl-2,3,4,9-tetrahydro-4-[2-(methoxyimino)ethyl]-8-methyl-1H-carbazole-1-acetic Acid], the “% Inhibition” value is recorded as 45%.
For the molecule `CC[C@]1(CC(=O)O)CC[C@@H](CC#N)c2c1[nH]c1c(C)cccc21` (relative stereo) [Example 4, cis-4-(Cyanomethyl)-1-ethyl-2,3,4,9-tetrahydro-8-methyl-1H-carbazole-1-acetic Acid], the “% Inhibition” value is reported as 52%.
Under “cis-1-Ethyl-2,3,4,9-tetrahydro-4-[2-(hydroxyimino)ethyl]-8-methyl-1H-carbazole-1-acetic Acid [Example 1]” stands 59%; under `CC[C@]1(CC(=O)O)CC[C@@H](CC(C)=O)c2c1[nH]c1c(C)cccc21` (relative stereo) [Example 3, cis-1-Ethyl-2,3,4,9-tetrahydro-8-methyl-4-(2-oxopropyl)-1H-carbazole-1-acetic Acid], 52%.
